# ChEMBL document CHEMBL3425496, “Exploring experimental and computational markers of cyclic peptides: Charting islands of permeability” (Eur J Med Chem, 2015)
# Square brackets hold non-standard residues; d marks the D form. Peptide text beside a SMILES is read from it. NMeW = CN[C@@H](Cc1c[nH]c2ccccc12)C(=O)O; NMeL = CN[C@@H](CC(C)C)C(=O)O; dNMeL = CN[C@H](CC(C)C)C(=O)O
# Legend:
# [1] = Apparent permeability of the compound at 50 uM after 5 hrs by PAMPA method; format: physicochemical
# [2] = Apparent permeability from apical to basolateral side in human Caco2 cells by LC-MS analysis; format: ADME, cell-based; conditions: Caco-2
"Papp at 5 h, 50 µM [1] [×10⁻⁶ cm/s]",Papp A→B [2] [×10⁻⁶ cm/s],SMILES
0.09,0.2,C[C@@H](O)[C@@H]1NC(=O)[C@@H](CCCCN)NC(=O)[C@@H](Cc2c[nH]c3ccccc23)NC(=O)[C@H](Cc2ccccc2)NC(=O)[C@@H]2CCCN2C(=O)[C@@H](Cc2ccccc2)NC1=O
0.67,11.9,CC(C)C[C@@H]1NC(=O)[C@@H](CC(C)C)N(C)C(=O)[C@@H](CC(C)C)N(C)C(=O)[C@H](Cc2ccc(O)cc2)NC(=O)[C@@H]2CCCN2C(=O)[C@@H](CC(C)C)NC1=O
2.3,13.9,CC(C)C[C@@H]1NC(=O)[C@H](CC(C)C)N(C)C(=O)[C@@H](CC(C)C)N(C)C(=O)[C@H](Cc2ccc(O)cc2)NC(=O)[C@@H]2CCCN2C(=O)[C@H](CC(C)C)N(C)C1=O
3.33,9.46,CC(C)C[C@@H]1NC(=O)[C@H](Cc2c[nH]c3ccccc23)NC(=O)[C@H]2CCCN2C(=O)[C@@H](CC(C)C)NC(=O)[C@@H](CC(C)C)NC(=O)[C@@H](CC(C)C)NC1=O
0.19,0.21,CC(C)C[C@@H]1NC(=O)[C@H](Cc2c[nH]c3ccccc23)NC(=O)[C@@H]2CCCN2C(=O)[C@H]2CCCN2C(=O)[C@@H](CC(C)C)NC(=O)[C@H](CC(C)C)NC1=O
0.28,0.36,CC(C)C[C@@H]1NC(=O)[C@@H](CC(C)C)NC(=O)[C@@H](CC(C)C)NC(=O)[C@@H](CC(C)C)NC(=O)[C@H](Cc2c[nH]c3ccccc23)NC(=O)[C@@H]2CCCN2C1=O
2.53,17.5,CC(C)C[C@@H]1NC(=O)[C@@H](CC(C)C)NC(=O)[C@@H](CC(C)C)NC(=O)[C@H](Cc2c[nH]c3ccccc23)NC(=O)[C@@H]2CCCN2C(=O)[C@@H](CC(C)C)NC1=O
1.67,5.95,CC(C)C[C@@H]1NC(=O)[C@H](Cc2c[nH]c3ccccc23)NC(=O)[C@H]2CCCN2C(=O)[C@H](CC(C)C)NC(=O)[C@H](CC(C)C)NC(=O)[C@@H](CC(C)C)NC1=O
0.41,3.06,CC[C@H](C)[C@@H]1NC(=O)[C@H](Cc2c[nH]c3ccccc23)NC(=O)[C@H]2CCCN2C(=O)[C@H]([C@@H](C)CC)NC(=O)[C@H]([C@@H](C)CC)NC(=O)[C@@H](CC(C)C)NC1=O
0.01,0.27,CC(C)C[C@@H]1NC(=O)[C@H](Cc2ccccc2)NC(=O)CNC(=O)[C@H](C)NC(=O)[C@H](Cc2ccc(O)cc2)NC(=O)[C@H]2CCCN2C1=O
0.07,0.58,CC(C)C[C@H]1NC(=O)[C@H](Cc2ccccc2)NC(=O)CNC(=O)[C@@H](C)NC(=O)[C@H](Cc2ccc(O)cc2)NC(=O)[C@@H]2CCCN2C1=O
0.02,0.72,CC(C)C[C@@H]1NC(=O)[C@@H](CC(C)C)NC(=O)[C@H](Cc2ccccc2)NC(=O)CNC(=O)[C@@H](C)NC(=O)[C@H](Cc2ccc(O)cc2)NC1=O
0.01,< 0.14,CC(C)C[C@H]1NC(=O)[C@@H](Cc2ccccc2)NC(=O)CNC(=O)[C@H](C)NC(=O)[C@H](Cc2ccc(O)cc2)NC(=O)[C@@H]2CCCN2C1=O
0.01,0.09,CC(C)C[C@@H]1NC(=O)[C@@H](Cc2ccccc2)NC(=O)CNC(=O)[C@@H](C)NC(=O)[C@H](Cc2ccc(O)cc2)NC(=O)[C@@H]2CCCN2C1=O
0.03,< 0.14,CC(C)C[C@@H]1NC(=O)[C@H](Cc2ccccc2)NC(=O)CNC(=O)[C@@H](C)NC(=O)[C@H](Cc2ccc(O)cc2)NC(=O)[C@@H]2CCCN2C1=O
0.35,1.08,CC(C)C[C@@H]1NC(=O)[C@H](Cc2ccccc2)N(C)C(=O)CN(C)C(=O)[C@H](C)NC(=O)[C@H](Cc2ccc(O)cc2)N(C)C(=O)[C@H]2CCCN2C1=O
0.16,0.1,CC(C)C[C@H]1C(=O)N2CCC[C@@H]2C(=O)N(C)[C@@H](Cc2ccc(O)cc2)C(=O)N[C@@H](C)C(=O)NCC(=O)N(C)[C@@H](Cc2ccccc2)C(=O)N1C
0.07,0.63,CC(C)C[C@H]1NC(=O)[C@H](Cc2ccccc2)NC(=O)CN(C)C(=O)[C@@H](C)N(C)C(=O)[C@H](Cc2ccc(O)cc2)NC(=O)[C@@H]2CCCN2C1=O
0.93,4.77,CC(C)C[C@@H]1C(=O)N(C)[C@@H](CC(C)C)C(=O)N[C@@H](Cc2ccc(O)cc2)C(=O)N(C)[C@H](C)C(=O)N(C)CC(=O)N[C@@H](Cc2ccccc2)C(=O)N1C
0.03,< 0.14,CC(C)C[C@H]1NC(=O)[C@@H](Cc2ccccc2)NC(=O)CN(C)C(=O)[C@H](C)N(C)C(=O)[C@H](Cc2ccc(O)cc2)NC(=O)[C@@H]2CCCN2C1=O
0.14,< 0.14,CC(C)C[C@H]1C(=O)N2CCC[C@H]2C(=O)N[C@@H](Cc2ccc(O)cc2)C(=O)N(C)[C@H](C)C(=O)N(C)CC(=O)N[C@H](Cc2ccccc2)C(=O)N1C
,< 0.14,CC(C)C[C@H]1C(=O)N2CCC[C@H]2C(=O)N[C@@H](Cc2ccc(O)cc2)C(=O)N(C)[C@H](C)C(=O)N(C)CC(=O)N[C@@H](Cc2ccccc2)C(=O)N1C

"Papp at 5 h, 50 µM [1] [×10⁻⁶ cm/s]",Papp A→B [2] [×10⁻⁶ cm/s],SMILES
0.41,12,CC(C)C[C@@H]1NC(=O)[C@H](Cc2ccccc2)NC(=O)[C@@H](CC(C)C)N(C)C(=O)[C@H](CC(C)C)N(C)C(=O)[C@H](Cc2ccc(O)cc2)NC(=O)[C@@H]2CCCN2C1=O
,< 0.14,CN1C(=O)[C@H]2CCCN2C(=O)[C@H](CCCCN)NC(=O)[C@H](CCCNC(=N)N)NC(=O)[C@@H](CCCNC(=N)N)NC(=O)[C@H](CCCNC(=N)N)NC(=O)[C@@H]1Cc1c[nH]c2ccccc12
< 0.01,< 0.14,C[C@@H]1NC(=O)[C@H](C)N(C)C(=O)[C@H](C)NC(=O)[C@H](C)N(C)C(=O)[C@H](C)NC(=O)[C@@H](C)NC1=O
0.09,0.1,CC(C)C[C@@H]1NC(=O)[C@H](Cc2ccc(O)cc2)NC(=O)[C@@H]2CCCN2C(=O)[C@H]2CCCN2C(=O)[C@@H](CC(C)C)NC(=O)[C@H](CC(C)C)NC1=O
0.96,10.8,CC(C)C[C@@H]1NC(=O)[C@H](Cc2ccc(O)cc2)NC(=O)[C@H]2CCCN2C(=O)[C@H](CC(C)C)NC(=O)[C@H](CC(C)C)N(C)C(=O)[C@@H](CC(C)C)N(C)C1=O
1.51,7.75,CC(C)C[C@@H]1NC(=O)[C@@H](CC(C)C)N(C)C(=O)[C@H](CC(C)C)NC(=O)[C@H](Cc2ccc(O)cc2)N(C)C(=O)[C@H]2CCCN2C(=O)[C@H](CC(C)C)NC1=O
1.31,11.3,CC(C)C[C@@H]1NC(=O)[C@H](Cc2ccc(O)cc2)N(C)C(=O)[C@H]2CCCN2C(=O)[C@H](CC(C)C)NC(=O)[C@H](CC(C)C)N(C)C(=O)[C@@H](CC(C)C)NC1=O
3.83,21.8,CC(C)C[C@@H]1NC(=O)[C@H](Cc2ccc(O)cc2)NC(=O)[C@@H]2CCCN2C(=O)[C@@H](CC(C)C)NC(=O)[C@@H](CC(C)C)N(C)C(=O)[C@@H](CC(C)C)N(C)C1=O
1.11,5.45,CC(C)C[C@H]1NC(=O)[C@H](CC(C)C)N(C)C(=O)[C@H](CC(C)C)N(C)C(=O)[C@H](Cc2ccc(O)cc2)NC(=O)[C@@H]2CCCN2C(=O)[C@H]2CCCN2C1=O
1.88,16.4,CC(C)C[C@@H]1C(=O)N(C)[C@H](CC(C)C)C(=O)N[C@H](CC(C)C)C(=O)N(C)[C@@H](CC(C)C)C(=O)N2CCC[C@H]2C(=O)N[C@@H](Cc2ccc(O)cc2)C(=O)N1C
0.1,14.7,CC(C)C[C@@H]1NC(=O)[C@@H](CC(C)C)N(C)C(=O)[C@@H](CC(C)C)N(C)C(=O)[C@H](Cc2ccc(O)cc2)NC(=O)[C@@H]2CCCN2C(=O)[C@@H](CC(C)C)N(C)C1=O
1.52,15.8,CC(C)C[C@@H]1C(=O)N(C)[C@@H](CC(C)C)C(=O)N(C)[C@@H](CC(C)C)C(=O)N2CCC[C@@H]2C(=O)N[C@@H](Cc2ccc(O)cc2)C(=O)N(C)[C@@H](CC(C)C)C(=O)N1C
0.29,1.04,CC(C)C[C@@H]1NC(=O)[C@H](CC(C)C)N(C)C(=O)[C@H](Cc2ccc(O)cc2)NC(=O)[C@@H]2CCCN2C(=O)[C@H]2CCCN2C(=O)[C@@H](CC(C)C)NC1=O
0.08,0.93,C[C@@H](O)[C@@H]1NC(=O)[C@H](CCCCN)NC(=O)[C@@H](Cc2c[nH]c3ccccc23)NC(=O)[C@H](Cc2ccccc2)NC(=O)[C@@H]2CCCN2C(=O)[C@H](Cc2ccccc2)NC1=O
0.02,0.46,CC(C)C[C@@H]1NC(=O)[C@H](Cc2ccccc2)NC(=O)[C@H]([C@@H](C)O)NC(=O)CNC(=O)[C@H](C)NC(=O)[C@H](Cc2ccc(O)cc2)NC1=O (cyclo(AGTFLY))
0.01,0.02,CC(C)C[C@@H]1NC(=O)CNC(=O)[C@H](Cc2ccccc2)NC(=O)[C@H](CC(N)=O)NC(=O)[C@H](Cc2ccc(O)cc2)NC(=O)[C@H](C)NC1=O (cyclo(AYNFGL))
,6.82,CC(C)C[C@H]1C(=O)N2CCC[C@H]2C(=O)N[C@@H](Cc2ccccc2)C(=O)N[C@@H](Cc2ccccc2)C(=O)N[C@@H](Cc2c[nH]c3ccccc23)C(=O)N[C@@H](C(C)C)C(=O)N1C (cyclo(FFWV[NMeL]P))
,1.7,CC(C)C[C@@H]1NC(=O)[C@H](C(C)C)NC(=O)[C@H](Cc2c[nH]c3ccccc23)N(C)C(=O)[C@H](Cc2ccccc2)NC(=O)[C@H](Cc2ccccc2)NC(=O)[C@@H]2CCCN2C1=O (cyclo(FF[NMeW]VLP))
,0.11,CC[C@H](C)[C@@H]1NC(=O)[C@H](C(C)C)NC(=O)[C@H](CC(C)C)NC(=O)CNC(=O)[C@@H]2CCCN2C(=O)[C@H](Cc2ccc(O)cc2)NC1=O (cyclo(GLVIYP))
0.77,,CC(C)C[C@@H]1NC(=O)[C@@H](CC(C)C)N(C)C(=O)[C@H](CC(C)C)NC(=O)[C@H](Cc2ccc(O)cc2)NC(=O)[C@H]2CCCN2C(=O)[C@H](CC(C)C)NC1=O (cyclo(LL[dP]YL[dNMeL]))
3.28,,C=C[C@H]1C[N@@]2CC[C@H]1C[C@@H]2[C@@H](O)c1ccnc2ccc(OC)cc12 [QUINIDINE]
